Measured values taken from the supplement of paper PMC6965134.
± gives the standard deviation of the averaged measurements.

Assay: TIMS collisional cross section (CCS, N2) of the lipid ion; higher = larger ion cross section
Settings: ionization mode: negative, one isomer drawn
Method: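 Lipid extracts of human plasma (NIST SRM 1950), mouse liver or HeLa cells were separated by nanoflow C18 LC (30 min gradient) and analysed by TIMS-PASEF on a timsTOF Pro. Ion mobility was calibrated with the Agilent tuning mix (negative mode ions) and converted to collisional cross sections (Mason–Schamp, N2).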

[1] = sample type: Human plasma, ion (formula + adduct): [C46H84NO8P+HCOO] 1-
[2] = sample type: Human plasma, ion (formula + adduct): [C46H82NO8P+HCOO] 1-
[3] = sample type: Mouse Liver, ion (formula + adduct): [C48H88NO8P+HCOO] 1-
[4] = sample type: Human plasma, ion (formula + adduct): [C48H84NO8P+HCOO] 1-
[5] = sample type: Mouse Liver, ion (formula + adduct): [C48H84NO8P+HCOO] 1-
[6] = sample type: Mouse Liver, ion (formula + adduct): [C44H80NO8P+HCOO] 1-
[7] = sample type: Mouse Liver, ion (formula + adduct): [C46H78NO8P-CH3] 1-
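Note: lipids from MTBE extraction, five replicate injections per sample, 100 ms TIMS ramp spanning 0.6–1.95 Vs/cm², lipid identity assigned from PASEF MS/MS spectra.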

SMILES: CCCCC/C=C\C/C=C\C/C=C\C/C=C\CCCC(=O)O[C@H](COC(=O)CCCCCCCCCCCCCCCCC)COP(=O)([O-])OCC[N+](C)(C)C [PC 18:0_20:4]
- TIMS collisional cross section [1]: 299.5 Å²
- TIMS collisional cross section (sample type: Mouse Liver, ion (formula + adduct): [C46H84NO8P+HCOO] 1-): 299.5 ± 0.85 Å²
- TIMS collisional cross section (sample type: Mouse Liver, ion (formula + adduct): [C46H84NO8P-CH3] 1-): 282.4 Å²

SMILES: CC/C=C\C/C=C\C/C=C\C/C=C\C/C=C\CCCC(=O)O[C@H](COC(=O)CCCCCCCCCCCCCCCCC)COP(=O)([O-])OCC[N+](C)(C)C [PC 18:0_20:5]
- TIMS collisional cross section [2]: 299.5 Å²

SMILES: CCCCC/C=C\C/C=C\C/C=C\C/C=C\CCCCCC(=O)O[C@H](COC(=O)CCCCCCCCCCCCCCCCC)COP(=O)([O-])OCC[N+](C)(C)C [PC 18:0_22:4]
- TIMS collisional cross section (sample type: Human plasma, ion (formula + adduct): [C48H88NO8P+HCOO] 1-): 305.1 Å²
- TIMS collisional cross section [3]: 304.5 Å²

SMILES: CC/C=C\C/C=C\C/C=C\C/C=C\C/C=C\C/C=C\CCC(=O)O[C@H](COC(=O)CCCCCCCCCCCCCCCCC)COP(=O)([O-])OCC[N+](C)(C)C [PC 18:0_22:6]
- TIMS collisional cross section [4]: 303.4 Å²
- TIMS collisional cross section [5]: 302.2 Å²

SMILES: CC/C=C\C/C=C\C/C=C\CCCCCCCC(=O)O[C@H](COC(=O)CCCCCCC/C=C\CCCCCCCC)COP(=O)([O-])OCC[N+](C)(C)C [PC 18:1@_18:3]
- TIMS collisional cross section [6]: 292.7 Å²

SMILES: CCCCC/C=C\C/C=C\C/C=C\C/C=C\CCCC(=O)O[C@H](COC(=O)CCCCCCC/C=C\CCCCCCCC)COP(=O)([O-])OCC[N+](C)(C)C [PC 18:1@_20:4]
- TIMS collisional cross section [2]: 298.3 Å²

SMILES: CCCCCCCC/C=C\CCCCCCCC(=O)OC[C@H](COP(=O)([O-])OCC[N+](C)(C)C)OC(=O)CCCCCCCCCCCCCCCCCC [PC 18:1_19:0]
- TIMS collisional cross section (sample type: Mouse Liver, ion (formula + adduct): [C45H88NO8P+HCOO] 1-): 299.5 Å²

SMILES: CCCCC/C=C\C/C=C\C/C=C\C/C=C\CCCC(=O)O[C@H](COC(=O)CCCCCCC/C=C\CCCCCCCC)COP(=O)([O-])OCC[N+](C)(C)C [PC 18:1_20:4]
- TIMS collisional cross section [2]: 298.3 Å²
- TIMS collisional cross section (sample type: Mouse Liver, ion (formula + adduct): [C46H82NO8P+HCOO] 1-): 297.7 Å²

SMILES: CC/C=C\C/C=C\C/C=C\C/C=C\C/C=C\CCCCCC(=O)O[C@H](COC(=O)CCCCCCCCC/C=C\CCCCCC)COP(=O)([O-])OCC[N+](C)(C)C [PC 18:1_22:5]
- TIMS collisional cross section [4]: 302.8 Å²
- TIMS collisional cross section [5]: 302.2 Å²

SMILES: CCCCC/C=C\C/C=C\C/C=C\C/C=C\CCCCCC(=O)O[C@H](COC(=O)CCCCCCC/C=C\C/C=C\CCCCC)COP(=O)([O-])OCC[N+](C)(C)C [PC 18:2@_22:4]
- TIMS collisional cross section [5]: 301.7 Å²

SMILES: CCCCC/C=C/C=C\CCCCCCCC(=O)O[C@H](COC(=O)CCCCCCC/C=C\C/C=C/CCCCC)COP(=O)([O-])OCC[N+](C)(C)C [PC 18:2_17:2]
- TIMS collisional cross section (sample type: Mouse Liver, ion (formula + adduct): [C43H78NO8P+HCOO] 1-): 289.3 Å²

SMILES: CCCCCCCCCCCCC/C=C/C=C/C(=O)OC[C@H](COP(=O)([O-])OCC[N+](C)(C)C)OC(=O)/C=C/C=C/CCCCCCCCCCCCC [PC 18:2_18:2]
- TIMS collisional cross section (sample type: Human plasma, ion (formula + adduct): [C44H80NO8P+HCOO] 1-): 293.4 ± 0.35 Å²
- TIMS collisional cross section [6]: 292.7 Å²

SMILES: CCCCC/C=C\C/C=C\CCCCCCCC(=O)OC[C@H](COP(=O)([O-])OCC[N+](C)(C)C)OC(=O)CCCCCCCCCCCCCCCCCC [PC 18:2_19:0]
- TIMS collisional cross section (sample type: Mouse Liver, ion (formula + adduct): [C45H86NO8P+HCOO] 1-): 299 Å²

SMILES: CCCCC/C=C\C/C=C\CCCCCCCCCC(=O)O[C@H](COC(=O)CCCCCCC/C=C\C/C=C\CCCCC)COP(=O)([O-])OCC[N+](C)(C)C [PC 18:2_20:2]
- TIMS collisional cross section [1]: 299.5 Å²

SMILES: CCCCC/C=C\C/C=C\C/C=C\CCCCCCC(=O)O[C@H](COC(=O)CCCCCCC/C=C\C/C=C\CCCCC)COP(=O)([O-])OCC[N+](C)(C)C [PC 18:2_20:3]
- TIMS collisional cross section [2]: 299.2 Å²

SMILES: CCCCC/C=C\C/C=C\C/C=C\C/C=C\CCCC(=O)O[C@H](COC(=O)CCCCCCC/C=C\C/C=C\CCCCC)COP(=O)([O-])OCC[N+](C)(C)C [PC 18:2_20:4]
- TIMS collisional cross section (sample type: Human plasma, ion (formula + adduct): [C46H80NO8P+HCOO] 1-): 296.8 ± 0.92 Å²
- TIMS collisional cross section (sample type: Mouse Liver, ion (formula + adduct): [C46H80NO8P+HCOO] 1-): 295.7 ± 0.42 Å²

SMILES: CC/C=C\C/C=C\C/C=C\C/C=C\C/C=C\CCCC(=O)O[C@H](COC(=O)CCCCCCC/C=C\C/C=C\CCCCC)COP(=O)([O-])OCC[N+](C)(C)C [PC 18:2_20:5@]
- TIMS collisional cross section [7]: 276.6 Å²

SMILES: CC/C=C\C/C=C\C/C=C\C/C=C\C/C=C\CCCC(=O)O[C@H](COC(=O)CCCCCCC/C=C\C/C=C\CCCCC)COP(=O)([O-])OCC[N+](C)(C)C [PC 18:2_20:5]
- TIMS collisional cross section (sample type: Human plasma, ion (formula + adduct): [C46H78NO8P+HCOO] 1-): 294.9 Å²

SMILES: CCCCC/C=C\C/C=C\C/C=C\C/C=C\CCCCCC(=O)O[C@H](COC(=O)CCCCCCC/C=C\C/C=C\CCCCC)COP(=O)([O-])OCC[N+](C)(C)C [PC 18:2_22:4@]
- TIMS collisional cross section (sample type: Human plasma, ion (formula + adduct): [C48H84NO8P-CH3] 1-): 303.8 Å²

SMILES: CCCCC/C=C\C/C=C\C/C=C\C/C=C\C/C=C\CCC(=O)O[C@H](COC(=O)CCCCCCC/C=C\C/C=C\CCCCC)COP(=O)([O-])OCC[N+](C)(C)C [PC 18:2_22:5]
- TIMS collisional cross section (sample type: Mouse Liver, ion (formula + adduct): [C48H82NO8P+HCOO] 1-): 299.9 Å²

SMILES: CC/C=C\C/C=C\C/C=C\C/C=C\C/C=C\C/C=C\CCC(=O)O[C@H](COC(=O)CCCCCCC/C=C\C/C=C\CCCCC)COP(=O)([O-])OCC[N+](C)(C)C [PC 18:2_22:6]
- TIMS collisional cross section (sample type: Human plasma, ion (formula + adduct): [C48H80NO8P+HCOO] 1-): 298.8 Å²
- TIMS collisional cross section (sample type: Mouse Liver, ion (formula + adduct): [C48H80NO8P+HCOO] 1-): 298.8 Å²

SMILES: CCCCC/C=C\C/C=C\C/C=C\C/C=C\CCCC(=O)O[C@H](COC(=O)CCCC/C=C\C/C=C\C/C=C\CCCCC)COP(=O)([O-])OCC[N+](C)(C)C [PC 18:3@_20:4]
- TIMS collisional cross section (sample type: Mouse Liver, ion (formula + adduct): [C46H78NO8P+HCOO] 1-): 296 Å²
- TIMS collisional cross section [7]: 277.2 Å²

SMILES: CCCC/C=C/C=C/C=C/CCCCCCCC(=O)OC[C@H](COP(=O)([O-])OCC[N+](C)(C)C)OC(=O)CCCCCCC/C=C/C=C/C=C/CCCC [PC 18:3_18:3]
- TIMS collisional cross section (sample type: Mouse Liver, ion (formula + adduct): [C44H76NO8P+HCOO] 1-): 289.8 Å²

SMILES: CCCCC/C=C\C/C=C\C/C=C\CCCCCCC(=O)O[C@H](COC(=O)CCCC/C=C\C/C=C\C/C=C\CCCCC)COP(=O)([O-])OCC[N+](C)(C)C [PC 18:3_20:3]
- TIMS collisional cross section (sample type: Human plasma, ion (formula + adduct): [C46H80NO8P+AcO] 1-): 300.6 Å²

SMILES: CC/C=C\C/C=C\C/C=C\C/C=C\C/C=C\C/C=C\CCC(=O)O[C@H](COC(=O)CCCC/C=C\C/C=C\C/C=C\C/C=C\CC)COP(=O)([O-])OCC[N+](C)(C)C [PC 18:4@_22:6]
- TIMS collisional cross section (sample type: Mouse Liver, ion (formula + adduct): [C48H76NO8P-CH3] 1-): 280 Å²

SMILES: CCCCCCCCCCCCCCCCCCC(=O)OC[C@H](COP(=O)([O-])OCC[N+](C)(C)C)OC(C)=O [PC 19:0@_2:0]
- TIMS collisional cross section (sample type: Human plasma, ion (formula + adduct): [C29H58NO8P-H] 1-): 244.4 Å²

SMILES: CC/C=C\C/C=C\C/C=C\C/C=C\C/C=C\C/C=C\CCC(=O)O[C@H](COC(=O)CCCCCCCCCCCCCCCCCCC)COP(=O)([O-])OCC[N+](C)(C)C [PC 20:0@_22:6]
- TIMS collisional cross section (sample type: Mouse Liver, ion (formula + adduct): [C50H88NO8P+HCOO] 1-): 308.5 Å²

SMILES: CCCCC/C=C\C/C=C\C/C=C\C/C=C\CCCC(=O)O[C@H](COC(=O)CCCCCCCCCCCCCCCCCCC)COP(=O)([O-])OCC[N+](C)(C)C [PC 20:0_20:4]
- TIMS collisional cross section [3]: 304.5 Å²

SMILES: CC/C=C\C/C=C\C/C=C\C/C=C\C/C=C\C/C=C\CCC(=O)O[C@H](COC(=O)CCCCCCCCC/C=C\CCCCCCCC)COP(=O)([O-])OCC[N+](C)(C)C [PC 20:1_22:6@]
- TIMS collisional cross section (sample type: Mouse Liver, ion (formula + adduct): [C50H86NO8P+HCOO] 1-): 306.7 Å²

SMILES: CC/C=C\C/C=C\C/C=C\C/C=C\C/C=C\C/C=C\CCC(=O)O[C@H](COC(=O)CCCCCCCCC/C=C\C/C=C\CCCCC)COP(=O)([O-])OCC[N+](C)(C)C [PC 20:2@_22:6]
- TIMS collisional cross section (sample type: Mouse Liver, ion (formula + adduct): [C50H84NO8P+HCOO] 1-): 303.9 Å²

SMILES: CC/C=C\C/C=C\C/C=C\C/C=C\C/C=C\C/C=C\CCC(=O)O[C@H](COC(=O)CCC/C=C\C/C=C\C/C=C\C/C=C\C/C=C\CC)COP(=O)([O-])OCC[N+](C)(C)C [PC 20:5_22:6]
- TIMS collisional cross section (sample type: Mouse Liver, ion (formula + adduct): [C50H78NO8P+HCOO] 1-): 300.4 Å²

SMILES: CC/C=C\C/C=C\C/C=C\C/C=C\C/C=C\C/C=C\CCC(=O)OC[C@H](COP(=O)([O-])OCC[N+](C)(C)C)OC(=O)CC/C=C\C/C=C\C/C=C\C/C=C\C/C=C\C/C=C\CC [PC 22:6_22:6]
- TIMS collisional cross section (sample type: Mouse Liver, ion (formula + adduct): [C52H80NO8P+HCOO] 1-): 304.9 Å²
